Test results taken from PubChem BioAssay (NCI).
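Tested at 5 concentrations; 48 h exposure; 96-well plates; endpoints linearly interpolated, else capped at highest concentration. At the TGI there is no net growth.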

How the values were obtained:
Experiment in all cases: NCI tumour cell line growth inhibition, 48 h
[1] = system: 786-0 renal
[2] = system: A498 renal
[3] = system: A549 NSCLC
[4] = system: ACHN renal
[5] = system: CAKI-1 renal
[6] = system: CCRF-CEM leukemia
[7] = system: COLO 205 colon
[8] = system: DLD-1 colon
[9] = system: DMS 114 small cell lung
[10] = system: DMS 273 small cell lung
[11] = system: EKVX NSCLC
[12] = system: HCC-2998 colon
[13] = system: HCT-116 colon
[14] = system: HCT-15 colon
[15] = system: HL-60(TB) leukemia
[16] = system: HOP-18 NSCLC
[17] = system: HOP-62 NSCLC
[18] = system: HOP-92 NSCLC
[19] = system: HT29 colon
[20] = system: IGROV1 ovarian
[21] = system: K-562 leukemia
[22] = system: KM12 colon
[23] = system: KM20L2 colon
[24] = system: LOX IMVI melanoma
[25] = system: LXFL 529 NSCLC
[26] = system: M14 melanoma
[27] = system: M19-MEL melanoma
[28] = system: MALME-3M melanoma
[29] = system: MOLT-4 leukemia
[30] = system: NCI-H226 lung
[31] = system: NCI-H23 lung
[32] = system: NCI-H460 lung
[33] = system: NCI-H522 lung
[34] = system: OVCAR-3 ovarian
[35] = system: OVCAR-4 ovarian
[36] = system: OVCAR-5 ovarian
[37] = system: OVCAR-8 ovarian
[38] = system: RPMI-8226 leukemia
[39] = system: RXF 393 renal
[40] = system: SF-268 CNS
[41] = system: SF-295 CNS
[42] = system: SF-539 CNS
[43] = system: SK-MEL-2 melanoma
[44] = system: SK-MEL-28 melanoma
[45] = system: SK-MEL-5 melanoma
[46] = system: SK-OV-3 ovarian
[47] = system: SN12C renal
[48] = system: SNB-19 CNS
[49] = system: SNB-75 CNS
[50] = system: SNB-78 CNS
[51] = system: SR leukemia
[52] = system: SW-620 colon
[53] = system: TK-10 renal
[54] = system: U251 CNS
[55] = system: UACC-257 melanoma
[56] = system: UACC-62 melanoma
[57] = system: UO-31 renal
[58] = system: XF 498 CNS
[59] = system: RXF-631 renal

SMILES: CCCCSC(=CC(=O)c1cccc(C(=O)C=C(SCCCC)SCCCC)n1)SCCCC
- TGI [1]: > 100 µM
- TGI [2]: > 100 µM
- TGI [3]: > 100 µM
- TGI [4]: > 100 µM
- TGI [5]: > 100 µM
- TGI [6]: > 100 µM
- TGI [7]: > 100 µM
- TGI [8]: > 100 µM
- TGI [9]: > 100 µM
- TGI [10]: > 100 µM
- TGI [11]: > 100 µM
- TGI [12]: > 100 µM
- TGI [13]: > 100 µM
- TGI [14]: > 100 µM
- TGI [15]: > 100 µM
- TGI [16]: > 100 µM
- TGI [17]: > 100 µM
- TGI [18]: > 100 µM
- TGI [19]: > 100 µM
- TGI [20]: > 100 µM
- TGI [21]: > 100 µM
- TGI [22]: > 100 µM
- TGI [23]: > 100 µM
- TGI [24]: > 100 µM
- TGI [25]: > 100 µM
- TGI [26]: > 100 µM
- TGI [27]: > 100 µM
- TGI [28]: > 100 µM
- TGI [29]: > 100 µM
- TGI [30]: > 100 µM
- TGI [31]: > 100 µM
- TGI [32]: > 100 µM
- TGI [33]: > 100 µM
- TGI [34]: > 100 µM
- TGI [35]: > 100 µM
- TGI [36]: > 100 µM
- TGI [37]: > 100 µM
- TGI [38]: > 100 µM
- TGI [39]: > 100 µM
- TGI [40]: > 100 µM
- TGI [41]: > 100 µM
- TGI [42]: > 100 µM
- TGI [43]: > 100 µM
- TGI [44]: > 100 µM
- TGI [45]: > 100 µM
- TGI [46]: > 100 µM
- TGI [47]: > 100 µM
- TGI [48]: > 100 µM
- TGI [49]: > 100 µM
- TGI [50]: > 100 µM
- TGI [51]: > 100 µM
- TGI [52]: > 100 µM
- TGI [53]: > 100 µM
- TGI [54]: > 100 µM
- TGI [55]: > 100 µM
- TGI [56]: > 100 µM
- TGI [57]: > 100 µM
- TGI [58]: > 100 µM

SMILES: COc1cc(C(C)c2cc3c(cc2OCCN)OCO3)cc(OC)c1OC (centres undefined)
- TGI [1]: > 100 µM
- TGI [2]: > 100 µM
- TGI [3]: > 100 µM
- TGI [4]: > 100 µM
- TGI [5]: > 100 µM
- TGI [6]: > 100 µM
- TGI [7]: > 100 µM
- TGI [8]: > 100 µM
- TGI [9]: > 100 µM
- TGI [10]: > 100 µM
- TGI [11]: > 100 µM
- TGI [12]: > 100 µM
- TGI [13]: > 100 µM
- TGI [14]: > 100 µM
- TGI [15]: 47 µM
- TGI [17]: > 100 µM
- TGI [19]: > 100 µM
- TGI [20]: > 100 µM
- TGI [21]: > 100 µM
- TGI [22]: > 100 µM
- TGI [23]: 80.8 µM
- TGI [24]: > 100 µM
- TGI [25]: > 100 µM
- TGI [26]: > 100 µM
- TGI [27]: > 100 µM
- TGI [28]: > 100 µM
- TGI [29]: > 100 µM
- TGI [30]: > 100 µM
- TGI [31]: > 100 µM
- TGI [32]: > 100 µM
- TGI [33]: > 100 µM
- TGI [34]: > 100 µM
- TGI [35]: > 100 µM
- TGI [36]: > 100 µM
- TGI [37]: > 100 µM
- TGI [38]: > 100 µM
- TGI [39]: 95.7 µM
- TGI [59]: > 100 µM
- TGI [40]: > 100 µM
- TGI [41]: > 100 µM
- TGI [42]: > 100 µM
- TGI [43]: > 100 µM
- TGI [44]: > 100 µM
- TGI [47]: > 100 µM
- TGI [48]: > 100 µM
- TGI [49]: 46.8 µM
- TGI [51]: > 100 µM
- TGI [52]: > 100 µM
- TGI [53]: > 100 µM
- TGI [54]: > 100 µM
- TGI [55]: > 100 µM
- TGI [56]: > 100 µM
- TGI [57]: > 100 µM

SMILES: O=C1Cc2ccccc2N1/N=C\c1ccc([N+](=O)[O-])cc1
- TGI [1]: > 100 µM
- TGI [2]: > 100 µM
- TGI [3]: > 100 µM
- TGI [4]: > 100 µM
- TGI [5]: > 100 µM
- TGI [6]: > 100 µM
- TGI [7]: > 100 µM
- TGI [8]: > 100 µM
- TGI [9]: > 100 µM
- TGI [10]: > 100 µM
- TGI [11]: > 100 µM
- TGI [12]: > 100 µM
- TGI [13]: > 100 µM
- TGI [14]: > 100 µM
- TGI [15]: > 100 µM
- TGI [16]: > 100 µM
- TGI [17]: > 100 µM
- TGI [18]: > 100 µM
- TGI [19]: > 100 µM
- TGI [20]: > 100 µM
- TGI [21]: > 100 µM
- TGI [22]: > 100 µM
- TGI [23]: > 100 µM
- TGI [24]: > 100 µM
- TGI [26]: > 100 µM
- TGI [27]: > 100 µM
- TGI [28]: > 100 µM
- TGI [29]: > 100 µM
- TGI [30]: > 100 µM
- TGI [31]: > 100 µM
- TGI [32]: > 100 µM
- TGI [34]: > 100 µM
- TGI [35]: > 100 µM
- TGI [36]: > 100 µM
- TGI [37]: > 100 µM
- TGI [38]: > 100 µM
- TGI [40]: > 100 µM
- TGI [41]: > 100 µM
- TGI [42]: > 100 µM
- TGI [43]: > 100 µM
- TGI [44]: > 100 µM
- TGI [45]: > 100 µM
- TGI [46]: > 100 µM
- TGI [48]: > 100 µM
- TGI [49]: > 100 µM
- TGI [50]: > 100 µM
- TGI [52]: > 100 µM
- TGI [53]: > 100 µM
- TGI [54]: > 100 µM
- TGI [55]: > 100 µM
- TGI [56]: > 100 µM
- TGI [57]: > 100 µM
- TGI [58]: > 100 µM
